Reference: patent US20230381156A1, “TREATMENT OF BREAST CANCER USING COMBINATION THERAPIES COMPRISING GDC-9545 AND IPATASERTIB” (Genentech, Inc., priority 2021, published 2023)

Key:
[1] = tested on: ER+ breast cancer models of ESR1-wild type and ESR1-mutation-bearing disease; assay: Xenograft models / ER+ breast cancer models
[2] = tested on: frontline patients; conditions: NCT01602380; cited from earlier work
[3] = Human steady-state total drug exposure versus fulvestrant; assay type: in vivo; conditions: GDC-9545 30 mg QD versus fulvestrant 500 mg IM monthly
[4] = tested on: ER (wild-type and ESR1-mutant contexts); assay: In vitro cell and biochemical assays, potency versus fulvestrant
[5] = biological target: T1, ER (Homo sapiens, UniProt P03372); assay: Competition with estrogens for binding to the ER
T1 sequence (P03372 1-595): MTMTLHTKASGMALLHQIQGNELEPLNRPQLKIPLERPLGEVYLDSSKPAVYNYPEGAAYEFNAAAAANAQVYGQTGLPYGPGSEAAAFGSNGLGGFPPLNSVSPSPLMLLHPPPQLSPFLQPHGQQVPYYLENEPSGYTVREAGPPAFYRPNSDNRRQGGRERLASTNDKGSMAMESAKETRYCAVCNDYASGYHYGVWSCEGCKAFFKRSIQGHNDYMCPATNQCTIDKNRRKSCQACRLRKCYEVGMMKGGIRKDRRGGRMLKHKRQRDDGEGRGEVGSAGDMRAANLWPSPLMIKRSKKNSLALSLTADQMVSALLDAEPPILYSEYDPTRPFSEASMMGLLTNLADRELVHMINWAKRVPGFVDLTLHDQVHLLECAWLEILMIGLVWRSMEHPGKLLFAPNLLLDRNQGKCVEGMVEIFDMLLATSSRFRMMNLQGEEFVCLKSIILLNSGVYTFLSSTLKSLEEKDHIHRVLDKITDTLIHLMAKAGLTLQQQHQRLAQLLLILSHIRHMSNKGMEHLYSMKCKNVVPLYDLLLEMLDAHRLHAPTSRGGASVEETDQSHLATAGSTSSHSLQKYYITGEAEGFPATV

[6] = Plasma protein binding / free concentration versus fulvestrant; assay type: in vitro ADME
[7] = tested on: CDK4/6i-resistant breast cancer cell line; conditions: Iida et al. 2020; cited from earlier work

C[C@]12CC[C@@H]3c4ccc(O)cc4C[C@@H](CCCCCCCCC[S+]([O-])CCCC(F)(F)C(F)(F)F)[C@H]3[C@@H]1CC[C@@H]2O (stereo partly shown) [Fulvestrant, reference compound]
efficacy in xenograft models compared with GDC-9545 ([1]; fulvestrant dosed according to a clinically relevant dosing scheme): less efficacious than GDC-9545
clinical benefit versus anastrozole [2]: benefit over anastrozole

C[C@@H]1Cc2c([nH]c3ccccc23)[C@@H](c2c(F)cc(NC3CN(CCCF)C3)cc2F)N1CC(F)(F)CO [GDC-9545, 3-((1R,3R)-1-(2,6-difluoro-4-((1-(3-fluoropropyl)azetidin-3-yl)amino)phenyl)-3-methyl-1,3,4,9-tetrahydro-2H-pyrido[3,4-b]indol-2-yl)-2,2-difluoropropan-1-ol]
nonclinical activity in ER+ breast cancer models ([1]; ESR1-wild type and ESR1-mutation-bearing disease): robust nonclinical activity
human steady-state total drug exposure relative to fulvestrant [3]: approximately 10 fold
potency relative to fulvestrant [4]: up to 10 times
potency of competition with estrogens for binding to the ER [5]: low nanomolar potency
free concentration compared with fulvestrant [6]: higher
plasma protein binding compared with fulvestrant [6]: lower

Cc1nc(NC(=O)N2CCC[C@H]2C(N)=O)sc1-c1ccnc(C(C)(C)C(F)(F)F)c1 [alpelisib]
response of resistant cells in cell growth analysis [7]: remain responsive

CO[C@H]1C[C@@H]2CC[C@@H](C)[C@@](O)(O2)C(=O)C(=O)N2CCCC[C@H]2C(=O)O[C@H]([C@H](C)C[C@@H]2CC[C@@H](OCCO)[C@H](OC)C2)CC(=O)[C@H](C)/C=C(\C)[C@@H](O)[C@@H](OC)C(=O)[C@H](C)C[C@H](C)/C=C/C=C/C=C/1C [everolimus]
response of resistant cells in cell growth analysis [7]: remain responsive
